Assay results as given in patent US12605517B1 (Belhaven BioPharma Inc., priority 2024, dated 2026).

Key:
[1] = Study 101, plasma epinephrine pharmacokinetics; assay type: in vivo; conditions: human, im
Protocol: Each patient was provided each treatment of the trial with 72-hour washout periods between each treatment, beginning with a 3.5 mg intranasal dose, followed by a 0.3 mg intramuscular dose, followed by a 0.5 mg intramuscular dose, and concluding with a 5.5 mg intranasal dose, with a safety follow-up performed 3 to 5 days after the final dose was administered. The primary endpoints of the study were pharmacokinetic measurements and assessments of comparative bioavailability, while the secondary endpoints were safety concerns and pharmacodynamic assessments.

[2] = Human Phase 1 clinical study, plasma epinephrine pharmacokinetics and bioavailability; assay type: in vivo; conditions: for Tmax: read-out: median Tmax (converted)

- Tmax ([1]; 0.3 mg, 0.3 mg IM, read-out: Tmax (Mean) (converted)): 41.4 min
- Tmax ([1]; 0.3 mg, 0.3 mg IM, read-out: Tmax (Median) (converted)): 48 min
- Tmax ([1]; 0.5 mg, 0.5 mg IM, read-out: Tmax (Mean) (converted)): 40.9 min
- Tmax ([1]; 0.5 mg, 0.5 mg IM, read-out: Tmax (Median) (converted)): 48 min
- Cmax ([2]; 0.3 mg IM, read-out: mean baseline-corrected Cmax): 0.184 ng/mL
- Tmax ([2]; 0.3 mg IM): 48 min
- Tmax ([2]; 0.5 mg IM): 48 min
SMILES: CNC[C@H](O)c1ccc(O)c(O)c1 [Epinephrine IM, epinephrine]
